# Experimental data published in the supplement of paper PMC10307832.
# Key:
# Assay in all cases: relative viability (nuclei count vs DMSO), 5 days (fraction); higher = more cells survive
# [1] = compound: CN[C@@H]1C[C@H]2O[C@@](C)([C@@H]1OC)n1c3ccccc3c3c4c(c5c6ccccc6n2c5c31)C(=O)NC4 [Staurosporine] + CC(=O)Nc1cccc(-n2c(=O)n(C3CC3)c(=O)c3c(Nc4ccc(I)cc4F)n(C)c(=O)c(C)c32)c1 [Trametinib] (partner 0.02 µM)
# In short: (§1)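 Lung cancer cell lines, seeded in 1536-well plates, were treated the following day by pin tool with a single drug or with five library-drug doses (not always all listed) in √10 steps on top of a fixed anchor-drug dose. Cells were fixed and nuclei stained in one step after 5 days, and nuclei were counted. Relative viability is the nuclei count for treated wells divided by that for vehicle wells, reported as medians of duplicate plates.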
# Sulindac + Navitoclax = compound: CC1=C(CC(=O)O)c2cc(F)ccc2/C1=C\c1ccc([S+](C)[O-])cc1 [Sulindac] + CC1(C)CCC(c2ccc(Cl)cc2)=C(CN2CCN(c3ccc(C(=O)NS(=O)(=O)c4ccc(N[C@H](CCN5CCOCC5)CSc5ccccc5)c(S(=O)(=O)C(F)(F)F)c4)cc3)CC2)C1 [Navitoclax] (partner 0.5 µM)
# In short: as §1
# Sulindac + Phenformin = compound: CC1=C(CC(=O)O)c2cc(F)ccc2/C1=C\c1ccc([S+](C)[O-])cc1 [Sulindac] + N=C(N)NC(=N)NCCc1ccccc1 [Phenformin] (partner 250 µM)
# In short: as §1
# [2] = compound: CN[C@@H]1C[C@H]2O[C@@](C)([C@@H]1OC)n1c3ccccc3c3c4c(c5c6ccccc6n2c5c31)C(=O)NC4 [Staurosporine] + CCNC(=O)c1noc(-c2cc(C(C)C)c(O)cc2O)c1-c1ccc(CN2CCOCC2)cc1 [Luminespib] (partner 0.01 µM)
# In short: as §1
cell line,measurement,setting,value
NCI-H2087,relative viability,[1]; first compound 0.005 µM,0.167
same,relative viability,[1]; first compound 0.01581 µM,0.142
same,relative viability,[1]; first compound 0.05 µM,0.0865
same,relative viability,[1]; first compound 0.1581 µM,0.0713
same,relative viability,[1]; first compound 0.5 µM,0.0829
same,relative viability,Sulindac + Navitoclax; first compound 0.08 µM,0.958
same,relative viability,Sulindac + Navitoclax; first compound 0.253 µM,0.939
same,relative viability,Sulindac + Navitoclax; first compound 0.8 µM,0.88
same,relative viability,Sulindac + Navitoclax; first compound 2.53 µM,0.973
same,relative viability,Sulindac + Navitoclax; first compound 8 µM,1.1
same,relative viability,Sulindac + Phenformin; first compound 0.08 µM,0.58
same,relative viability,Sulindac + Phenformin; first compound 0.253 µM,0.529
same,relative viability,Sulindac + Phenformin; first compound 2.53 µM,0.431
same,relative viability,Sulindac + Phenformin; first compound 8 µM,0.51
same,relative viability,[2]; first compound 0.005 µM,0.151
same,relative viability,[2]; first compound 0.01581 µM,0.139
same,relative viability,[2]; first compound 0.05 µM,0.112
same,relative viability,[2]; first compound 0.1581 µM,0.112
same,relative viability,[2]; first compound 0.5 µM,0.0949
NCI-H358,relative viability,[1]; first compound 0.005 µM,0.157
same,relative viability,[1]; first compound 0.01581 µM,0.111
same,relative viability,[1]; first compound 0.05 µM,0.0885
same,relative viability,[1]; first compound 0.1581 µM,0.0815
same,relative viability,[1]; first compound 0.5 µM,0.0672
same,relative viability,Sulindac + Phenformin; first compound 0.08 µM,0.362
same,relative viability,Sulindac + Phenformin; first compound 0.253 µM,0.369
same,relative viability,Sulindac + Phenformin; first compound 0.8 µM,0.221
same,relative viability,Sulindac + Phenformin; first compound 2.53 µM,0.312
same,relative viability,Sulindac + Phenformin; first compound 8 µM,0.385
same,relative viability,[2]; first compound 0.005 µM,0.563
same,relative viability,[2]; first compound 0.01581 µM,0.198
same,relative viability,[2]; first compound 0.05 µM,0.359
same,relative viability,[2]; first compound 0.1581 µM,0.167
same,relative viability,[2]; first compound 0.5 µM,0.0923
H3255,relative viability,[1]; first compound 0.005 µM,0.48
same,relative viability,[1]; first compound 0.01581 µM,0.321
same,relative viability,[1]; first compound 0.05 µM,0.236
same,relative viability,[1]; first compound 0.1581 µM,0.197
same,relative viability,[1]; first compound 0.5 µM,0.141
same,relative viability,Sulindac + Navitoclax; first compound 0.08 µM,0.54
same,relative viability,Sulindac + Navitoclax; first compound 0.253 µM,0.685
same,relative viability,Sulindac + Navitoclax; first compound 0.8 µM,0.551
same,relative viability,Sulindac + Navitoclax; first compound 2.53 µM,0.512
same,relative viability,Sulindac + Navitoclax; first compound 8 µM,0.612
same,relative viability,Sulindac + Phenformin; first compound 0.08 µM,0.333
same,relative viability,Sulindac + Phenformin; first compound 0.253 µM,0.295
same,relative viability,Sulindac + Phenformin; first compound 0.8 µM,0.357
same,relative viability,Sulindac + Phenformin; first compound 2.53 µM,0.336
same,relative viability,Sulindac + Phenformin; first compound 8 µM,0.335
same,relative viability,[2]; first compound 0.005 µM,0.771
same,relative viability,[2]; first compound 0.01581 µM,0.513
same,relative viability,[2]; first compound 0.05 µM,0.44
same,relative viability,[2]; first compound 0.1581 µM,0.266
same,relative viability,[2]; first compound 0.5 µM,0.212
NCI-H23,relative viability,[1]; first compound 0.005 µM,0.315
same,relative viability,[1]; first compound 0.01581 µM,0.165
same,relative viability,[1]; first compound 0.05 µM,0.172
same,relative viability,[1]; first compound 0.1581 µM,0.0936
same,relative viability,[1]; first compound 0.5 µM,0.119
same,relative viability,Sulindac + Navitoclax; first compound 0.08 µM,0.809
same,relative viability,Sulindac + Navitoclax; first compound 0.253 µM,0.84
same,relative viability,Sulindac + Navitoclax; first compound 0.8 µM,0.785
same,relative viability,Sulindac + Navitoclax; first compound 2.53 µM,0.84
same,relative viability,Sulindac + Navitoclax; first compound 8 µM,0.923
same,relative viability,Sulindac + Phenformin; first compound 0.08 µM,0.819
same,relative viability,Sulindac + Phenformin; first compound 0.8 µM,0.61
same,relative viability,Sulindac + Phenformin; first compound 2.53 µM,0.819
same,relative viability,Sulindac + Phenformin; first compound 8 µM,0.824
same,relative viability,[2]; first compound 0.005 µM,0.215
same,relative viability,[2]; first compound 0.01581 µM,0.204
same,relative viability,[2]; first compound 0.05 µM,0.181
same,relative viability,[2]; first compound 0.1581 µM,0.163
same,relative viability,[2]; first compound 0.5 µM,0.156
CAL-12T,relative viability,[1]; first compound 0.005 µM,0.19
same,relative viability,[1]; first compound 0.01581 µM,0.145
same,relative viability,[1]; first compound 0.05 µM,0.0965
same,relative viability,[1]; first compound 0.1581 µM,0.126
same,relative viability,[1]; first compound 0.5 µM,0.083
same,relative viability,Sulindac + Navitoclax; first compound 0.08 µM,1.67
same,relative viability,Sulindac + Navitoclax; first compound 0.253 µM,1.35
same,relative viability,Sulindac + Navitoclax; first compound 0.8 µM,0.969
same,relative viability,Sulindac + Navitoclax; first compound 2.53 µM,1.38
same,relative viability,Sulindac + Navitoclax; first compound 8 µM,1.42
same,relative viability,Sulindac + Phenformin; first compound 0.08 µM,0.662
same,relative viability,Sulindac + Phenformin; first compound 0.253 µM,0.615
same,relative viability,Sulindac + Phenformin; first compound 0.8 µM,0.418
same,relative viability,Sulindac + Phenformin; first compound 2.53 µM,0.529
same,relative viability,Sulindac + Phenformin; first compound 8 µM,0.681
same,relative viability,[2]; first compound 0.005 µM,0.0969
same,relative viability,[2]; first compound 0.01581 µM,0.0675
same,relative viability,[2]; first compound 0.05 µM,0.0596
same,relative viability,[2]; first compound 0.1581 µM,0.109
same,relative viability,[2]; first compound 0.5 µM,0.109
A-427,relative viability,[1]; first compound 0.005 µM,0.521
same,relative viability,[1]; first compound 0.01581 µM,0.439
same,relative viability,[1]; first compound 0.05 µM,0.247
same,relative viability,[1]; first compound 0.1581 µM,0.121
same,relative viability,[1]; first compound 0.5 µM,0.117
same,relative viability,Sulindac + Navitoclax; first compound 0.08 µM,1.07
same,relative viability,Sulindac + Navitoclax; first compound 0.253 µM,0.94
same,relative viability,Sulindac + Navitoclax; first compound 0.8 µM,0.985
same,relative viability,Sulindac + Navitoclax; first compound 2.53 µM,0.926
same,relative viability,Sulindac + Navitoclax; first compound 8 µM,1.04
same,relative viability,Sulindac + Phenformin; first compound 0.08 µM,0.332
same,relative viability,Sulindac + Phenformin; first compound 0.253 µM,0.324
same,relative viability,Sulindac + Phenformin; first compound 0.8 µM,0.248
same,relative viability,Sulindac + Phenformin; first compound 2.53 µM,0.334
same,relative viability,Sulindac + Phenformin; first compound 8 µM,0.354
same,relative viability,[2]; first compound 0.005 µM,0.712
same,relative viability,[2]; first compound 0.01581 µM,0.463
same,relative viability,[2]; first compound 0.05 µM,0.231
same,relative viability,[2]; first compound 0.1581 µM,0.159
same,relative viability,[2]; first compound 0.5 µM,0.149
HARA,relative viability,[1]; first compound 0.005 µM,0.365
same,relative viability,[1]; first compound 0.01581 µM,0.401
same,relative viability,[1]; first compound 0.05 µM,0.2
same,relative viability,[1]; first compound 0.1581 µM,0.132
same,relative viability,[1]; first compound 0.5 µM,0.118
same,relative viability,Sulindac + Navitoclax; first compound 0.08 µM,1.21
same,relative viability,Sulindac + Navitoclax; first compound 0.253 µM,1.24
same,relative viability,Sulindac + Navitoclax; first compound 2.53 µM,1.18
same,relative viability,Sulindac + Navitoclax; first compound 8 µM,1.14
same,relative viability,Sulindac + Phenformin; first compound 0.08 µM,0.56
same,relative viability,Sulindac + Phenformin; first compound 0.253 µM,0.523
same,relative viability,Sulindac + Phenformin; first compound 0.8 µM,0.29
same,relative viability,Sulindac + Phenformin; first compound 2.53 µM,0.468
same,relative viability,Sulindac + Phenformin; first compound 8 µM,0.553
same,relative viability,[2]; first compound 0.005 µM,0.697
same,relative viability,[2]; first compound 0.05 µM,0.297
same,relative viability,[2]; first compound 0.1581 µM,0.0959
same,relative viability,[2]; first compound 0.5 µM,0.0973
